This note sets out measurements from patent publication US9023864B2, “Indole derivatives as CRTH2 receptor antagonists” (Merck Sharp & Dohme Corp., priority 2009, dated 2015).

Bounds are passed on as bounds.

The target of this assay is T1, hCRTH2 (Homo sapiens, UniProt Q9Y5Y4).
T1 construct: expressed in transfected cells; host or cells: HEK cell line expressing hCRTH2 (HEK-hCRTH2); membranes
T1 sequence (Q9Y5Y4 1-395): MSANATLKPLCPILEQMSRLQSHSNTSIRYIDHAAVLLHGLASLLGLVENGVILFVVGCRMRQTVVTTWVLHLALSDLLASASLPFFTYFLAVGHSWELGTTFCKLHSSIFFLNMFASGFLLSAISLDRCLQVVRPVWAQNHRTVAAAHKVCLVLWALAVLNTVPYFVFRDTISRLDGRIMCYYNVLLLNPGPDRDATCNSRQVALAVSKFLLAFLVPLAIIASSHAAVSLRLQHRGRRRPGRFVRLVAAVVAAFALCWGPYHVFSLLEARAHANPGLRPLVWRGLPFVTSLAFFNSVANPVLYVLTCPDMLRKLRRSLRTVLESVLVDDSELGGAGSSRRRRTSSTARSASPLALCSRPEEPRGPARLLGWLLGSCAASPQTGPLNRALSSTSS
As to the kind of experiment: Radioligand binding assay ([3H]PGD2 competition, membranes from HEK-hCRTH2 cell line). The conditions noted are these: 0.7 nM [3H]PGD2, membrane protein from HEK-hCRTH2 cell line, 60 min at room temperature; values given as ranges. The protocol:
Radioligand Binding Assay.
Radioligand binding assays were performed at room temperature in 10 mM HEPES/KOH pH 7.4, 1 mM EDTA containing 10 mM MnCl2 and 0.7 nM [^3H]PGD2 (NEN, 171 Ci mmol^−1), in a final volume of 0.2 ml. Competing ligands were diluted in dimethylsulfoxide (Me2SO) that was kept constant at 1% (v/v) of the final incubation volume. The reaction was initiated by the addition of 8-20 μg of membrane protein prepared from a HEK-hCRTH2 cell line. Total and non-specific binding were determined in the absence and the presence of 10 μM PGD2, respectively. Under these conditions, specific binding (total minus non-specific) of the radioligand to the receptor reached equilibrium within 50 min and was stable up to 180 min. The reaction was routinely conducted for 60 min at room temperature and terminated by rapid filtration through prewetted Unifilters GF/C (Packard), using a Tomtec MachIII semi-automated harvester (for HEK-hCRTH2). The filters were then washed with 4 ml of the same buffer and residual radioligand bound to the filter was determined by liquid scintillation counting following equilibration in 25 μl Ultima Gold F™ (Unifilter) (Packard). The Ki (in nM) values for representative compounds of the present invention are as follows: ≦5: Examples 3.1, 5.1, 6.1, 7.1, 8.1/8A, 9.1, 26, 27.1, 28.1, 29.1, 30, 31.1, 31.3, 32.1, 32.4, 33.1, 34.1, 36.1, 38.1, 39, 40, 41; >5 and ≦10: Examples, 4, 5.3, 29.2; >10 and ≦50: Examples 1, 10, 14, 21, 22, 25, 31.4, 32.3, 35, 36.2, 37; >50 and ≦100: Examples 2, 5.4, 6.2, 27.2, 28.2; >100: Examples 3.2, 5.2, 7.2, 8.2, 9.2, 11, 12, 13, 15, 16, 17, 18, 19, 20, 23, 24, 31.2, 32.2, 33.2, 34.2, 38.2.
Broadly, the Ki is a dissociation constant, usually derived from enzyme kinetics or from competition with a known ligand. Read a low Ki as higher affinity. In turn, `Cc1c(Cc2ccc(F)cc2)nnn1C1CCc2c(CC(=O)O)c3cccc(F)c3n2C1` (racemic) [Example 37, {4-Fluoro-7-[4-(4-fluorobenzyl)-5-methyl-1H-1,2,3-triazol-1-yl]-6,7,8,9-tetrahydropyrido[1,2-α]indol-10-yl}acetic acid] registered a Ki of 10 to 50 nM.
Turning to `O=C(O)Cc1c2n(c3ccccc13)CC(n1nncc1Cc1ccccc1)CC2` (single isomer, unassigned) [Example 3.1, [7-(5-Benzyl-[1,2,3]triazol-1-yl)-6,7,8,9-tetrahydropyrido[1,2-α]indol-10-yl]-acetic acid], the Ki was at most 5 nM.
Turning to `O=C(O)Cc1c2n(c3ccccc13)CC(n1nncc1Cc1ccccc1)CC2` (single isomer, unassigned) [Example 3.2, [7-(5-Benzyl-[1,2,3]triazol-1-yl)-6,7,8,9-tetrahydropyrido[1,2-α]indol-10-yl]-acetic acid], the Ki was over 100 nM.
On to `CC(O)(c1ccc(F)cc1)c1cnnn1C1CCc2c(CC(=O)O)c3ccccc3n2C1` (single isomer, unassigned) [Example 5.1, (7-{5-[1-(4-Fluoro-phenyl)-1-hydroxy-ethyl]-[1,2,3]triazol-1-yl}-6,7,8,9-tetrahydropyrido[1,2-α]indol-10-yl)-acetic acid], for which the Ki is at most 5 nM.
Consider `CC(O)(c1ccc(F)cc1)c1cnnn1C1CCc2c(CC(=O)O)c3ccccc3n2C1` (single isomer, unassigned) [Example 5.2, (7-{5-[1-(4-Fluoro-phenyl)-1-hydroxy-ethyl]-[1,2,3]triazol-1-yl}-6,7,8,9-tetrahydropyrido[1,2-α]indol-10-yl)-acetic acid], for which the Ki is over 100 nM.
On to `CC(O)(c1ccc(F)cc1)c1cnnn1C1CCc2c(CC(=O)O)c3ccccc3n2C1` (single isomer, unassigned) [Example 5.3, (7-{5-[1-(4-Fluoro-phenyl)-1-hydroxy-ethyl]-[1,2,3]triazol-1-yl}-6,7,8,9-tetrahydropyrido[1,2-α]indol-10-yl)-acetic acid], for which the Ki lay in the range of 5 to 10 nM.
As to `CC(O)(c1ccc(F)cc1)c1cnnn1C1CCc2c(CC(=O)O)c3ccccc3n2C1` (single isomer, unassigned) [Example 5.4, (7-{5-[1-(4-Fluoro-phenyl)-1-hydroxy-ethyl]-[1,2,3]triazol-1-yl}-6,7,8,9-tetrahydropyrido[1,2-α]indol-10-yl)-acetic acid], the Ki was in the range of 50 to 100 nM.
As for `O=C(O)Cc1c2n(c3ccccc13)CC(n1nncc1C1(c3ccccc3)CCCC1)CC2` (single isomer, unassigned) [Example 6.1, {7-[5-(1-Phenyl-cyclopentyl)-[1,2,3]triazol-1-yl]-6,7,8,9-tetrahydropyrido[1,2-α]indol-10-yl}-acetic acid], the Ki was at most 5 nM.
Compound `O=C(O)Cc1c2n(c3ccccc13)CC(n1nncc1C1(c3ccccc3)CCCC1)CC2` (single isomer, unassigned) [Example 6.2, {7-[5-(1-Phenyl-cyclopentyl)-[1,2,3]triazol-1-yl]-6,7,8,9-tetrahydropyrido[1,2-α]indol-10-yl}-acetic acid] registered a Ki of 50 to 100 nM.
In turn, `O=C(O)Cc1c2n(c3c(F)cccc13)CC(n1nncc1Cc1ccccc1)CC2` (single isomer, unassigned) [Example 7.1, [7-(5-Benzyl-[1,2,3]triazol-1-yl)-4-fluoro-6,7,8,9-tetrahydropyrido[1,2-α]indol-10-yl]-acetic acid] had a Ki of at most 5 nM.
Take `O=C(O)Cc1c2n(c3c(F)cccc13)CC(n1nncc1Cc1ccccc1)CC2` (single isomer, unassigned) [Example 7.2, [7-(5-Benzyl-[1,2,3]triazol-1-yl)-4-fluoro-6,7,8,9-tetrahydropyrido[1,2-α]indol-10-yl]-acetic acid]: the Ki was over 100 nM.
Take `O=C(O)Cc1c2n(c3c(F)cccc13)CC(n1nncc1Cc1ccc(F)cc1)CC2` (single isomer, unassigned) [Example 8.2, {4-Fluoro-7-[5-(4-fluoro-benzyl)-[1,2,3]triazol-1-yl]-6,7,8,9-tetrahydropyrido[1,2-α]indol-10-yl}-acetic acid]: the Ki was over 100 nM.
As to `O=C(O)Cn1c2c(c3ccccc31)CC(n1nncc1Cc1ccccc1)CC2` (single isomer, unassigned) [Example 9.1, [3-(5-Benzyl-[1,2,3]triazol-1-yl)-1,2,3,4-tetrahydro-carbazol-9-yl]-acetic acid], the Ki was at most 5 nM.
For `O=C(O)Cn1c2c(c3ccccc31)CC(n1nncc1Cc1ccccc1)CC2` (single isomer, unassigned) [Example 9.2, [3-(5-Benzyl-[1,2,3]triazol-1-yl)-1,2,3,4-tetrahydro-carbazol-9-yl]-acetic acid], the Ki was over 100 nM.
`O=C(O)Cc1c2n(c3ccccc13)CC(n1nncc1C(O)(c1ccc(F)cc1)c1ccc(F)cc1)CC2` (single isomer, unassigned) [Example 27.1] registered a Ki of at most 5 nM.
Regarding `O=C(O)Cc1c2n(c3ccccc13)CC(n1nncc1C(O)(c1ccc(F)cc1)c1ccc(F)cc1)CC2` (single isomer, unassigned) [Example 27.2], the Ki lay within 50 to 100 nM.
In turn, `O=C(O)Cc1c2n(c3ccccc13)CC(n1nncc1Cc1ccc(F)cc1)CC2` (single isomer, unassigned) [Example 28.1] showed a Ki of at most 5 nM.
`O=C(O)Cc1c2n(c3ccccc13)CC(n1nncc1Cc1ccc(F)cc1)CC2` (single isomer, unassigned) [Example 28.2] returned a Ki of 50 to 100 nM.
`CC(c1ccccc1)c1cnnn1C1CCc2c(CC(=O)O)c3ccccc3n2C1` (single isomer, unassigned) [Example 29.1] returned a Ki of at most 5 nM.
`CC(c1ccccc1)c1cnnn1[C@@H]1CCc2c(CC(=O)O)c3ccccc3n2C1` (single isomer, unassigned) [Example 29.2] came in with a Ki of 5 to 10 nM.
In turn, `CC(O)(c1ccc(F)cc1)c1cnnn1C1CCc2c(CC(=O)O)c3cccc(F)c3n2C1` (single isomer, unassigned) [Example 31.1] came in with a Ki of at most 5 nM.
`CC(O)(c1ccc(F)cc1)c1cnnn1C1CCc2c(CC(=O)O)c3cccc(F)c3n2C1` (single isomer, unassigned) [Example 31.2] registered a Ki of over 100 nM.
In turn, `CC(O)(c1ccc(F)cc1)c1cnnn1C1CCc2c(CC(=O)O)c3cccc(F)c3n2C1` (single isomer, unassigned) [Example 31.3] registered a Ki of at most 5 nM.
As for `CC(O)(c1ccc(F)cc1)c1cnnn1C1CCc2c(CC(=O)O)c3cccc(F)c3n2C1` (single isomer, unassigned) [Example 31.4], the Ki lay within 10 to 50 nM.
The value for `CC(c1ccccc1)c1cnnn1C1CCc2c(CC(=O)O)c3cccc(F)c3n2C1` (single isomer, unassigned) [Example 32.1, {4-Fluoro-7-[5-(1-phenyl-ethyl)-[1,2,3]triazol-1-yl]-6,7,8,9-tetrahydropyrido[1,2-α]indol-10-yl}-acetic acid] was at most 5 nM; that for `CC(c1ccccc1)c1cnnn1C1CCc2c(CC(=O)O)c3cccc(F)c3n2C1` (single isomer, unassigned) [Example 32.2, {4-Fluoro-7-[5-(1-phenyl-ethyl)-[1,2,3]triazol-1-yl]-6,7,8,9-tetrahydropyrido[1,2-α]indol-10-yl}-acetic acid] was over 100 nM.
The value for `CC(c1ccccc1)c1cnnn1C1CCc2c(CC(=O)O)c3cccc(F)c3n2C1` (single isomer, unassigned) [Example 32.3, {4-Fluoro-7-[5-(1-phenyl-ethyl)-[1,2,3]triazol-1-yl]-6,7,8,9-tetrahydropyrido[1,2-α]indol-10-yl}-acetic acid] was 10 to 50 nM; that for `CC(c1ccccc1)c1cnnn1C1CCc2c(CC(=O)O)c3cccc(F)c3n2C1` (single isomer, unassigned) [Example 32.4, {4-Fluoro-7-[5-(1-phenyl-ethyl)-[1,2,3]triazol-1-yl]-6,7,8,9-tetrahydropyrido[1,2-α]indol-10-yl}-acetic acid] was at most 5 nM.
